The values that follow are results of earlier work, collected in patent US20130296280A1, “EUTECTIC MIXTURE COMPRISING CELECOXIB AND POLOXAMER” (priority 2012, published 2013).

The conditions of the data set: oral celecoxib; Drug Metab Dispos. 2000:28:308-314.

Take `Cc1ccc(-c2cc(C(F)(F)F)nn2-c2ccc(S(N)(=O)=O)cc2)cc1` [celecoxib, 4-[5-(4-methylphenyl)-3-(trifluoromethyl)-1H-pyrazol-1-yl]benzenesulfonamide]: the bioavailability was 22-40%.
